Earlier results on four compounds are cited in article PMC5344293, “A phase 1 dose-escalation and expansion study of binimetinib (MEK162), a potent and selective oral MEK1/2 inhibitor” (British Journal of Cancer, 2017).

Like-named read-outs stand apart in the source and are kept apart here.

Data set [1] deals with non-melanoma tumours. More on the design: method as in Rosen et al, 2011. Particulars: ref Rosen et al, 2011; cited from earlier work.
For data set [2], the system named is non-melanoma tumours. More on the design: method as in Delord et al, 2010. The conditions noted are these: ref Delord et al, 2010; cited from earlier work.
The test system of data set [3] is metastatic biliary cancer. More on the design: method as in Bekaii-Saab et al, 2011. The conditions noted are these: ref Bekaii-Saab et al, 2011; cited from earlier work.
Data set [4] relates to non-melanoma tumours. More on the design: method as in Adjei et al, 2008. The conditions noted are these: ref Adjei et al, 2008; cited from earlier work.
The next data set deals with advanced solid tumours. Set-up: method as in Infante et al, 2012. Particulars: ref Infante et al, 2012, cited from earlier work.

Turning to `O=C(c1ccc(F)c(F)c1Nc1ccc(I)cc1F)N1CC(O)([C@@H]2CCCCN2)C1` [cobimetinib], the “Objective responses to single-agent treatment in non-melanoma patients” value (“Objective responses … in non-melanoma patients” for short) in the data set on non-melanoma tumours [1] was “no objective responses”. As to `O=C(NC[C@H](O)CO)c1ccncc1Nc1ccc(I)cc1F` [pimasertib], in the data set on non-melanoma tumours [2], the “Objective responses … in non-melanoma patients” value was “no objective responses”. On to `Cn1cnc2c(F)c(Nc3ccc(Br)cc3Cl)c(C(=O)NOCCO)cc21` [selumetinib], for which the “Objective response, patients” value in data set [3] is reported as 12%. Besides, the “Objective responses … in non-melanoma patients” value with non-melanoma tumours [4] is on record as “no objective responses”. On to `CC(=O)Nc1cccc(-n2c(=O)n(C3CC3)c(=O)c3c(Nc4ccc(I)cc4F)n(C)c(=O)c(C)c32)c1` [trametinib], for which the “Non-melanoma patients with objective responses” value in the data set with advanced solid tumours (NSCLC and pancreas cancer (2 patients each)) is recorded as 4 patients. For the same compound, the “Patients with objective responses” value in the data set on advanced solid tumours (all tumour types) is listed as 21 patients.
